Data set [1] can be described thus: Thermo stability test of esters and/or salts of hexahydro-β-acid (2% premix, 100° C., HPLC). The conditions noted are these: premix with corncob powder, initial content 2.0%, oven 100° C. In kind it is physicochemical. Here is the method: Samples (the premixes) were placed in crucibles, and then placed in oven at 100° C. for different durations. Then 1.0 g of each of the samples (three duplicate samples from each sample) and 50 ml of ethanol were added into a conical flask, followed by the addition of 100 μL of concentrated hydrochloric acid. The mixture was then subjected to sonication for 5 minutes, and then filtrated. The filtrate was transferred into a 50 ml volumetric flask, topped up to the final volume with ethanol, and then filtered with a 0.45 μm microporous membrane and subjected to HPLC analysis.

The test system of data set [2] is fast-grown yellow feather broilers (female). Nature of the data set: Application effect in broiler feed (30 days feeding trial). The data set is classed as in vivo. The conditions noted are these: for Average daily weight gain / Average weight gain / Feed conversion efficiency / Survival rate / Consumption: broilers, 30 days; for Consumption: 100 broilers per group. The source says:
500 1-day-aged, healthy, fast-grown yellow feather broilers (female) in the same growing state and similar in weight were randomly divided into five groups according to table 2, 100 broilers in each group. Broilers of each group were fed with different dosages of mono decanoate ester of hexahydro-β-acid or hexahydro-β-acid.

The subject of data set [3] is Duroc-Yorkshire-Landrace crossbred lean pigs. Nature of the data set: Application effect in pig feed (14 days feeding trial). In kind it is in vivo. The note with it: for Average daily weight gain / Average weight gain / Feed conversion efficiency / Consumption: pigs; for Consumption: 20 pigs. The source says: 120 67-day-aged, Duroc-Yorkshire-Landrace crossbred lean pigs similar in weight were randomly divided into six groups, 20 pigs in each group.

Setting [4] is: Group 3, 5 mg/kg mixed with feed.
[5] abbreviates: Group 4, 25 mg/kg mixed with feed.
Where [6] appears, read: Group 5, 5 mg/kg mixed with feed.
[7] abbreviates: Group 6, 25 mg/kg mixed with feed.

The text below walks through data of US20160368853A1, “MONOESTERS, INNER COMPLEX SALTS OR MONOESTER SALTS OF HEXAHYDRO-BETA-ACID AND APPLICATION THEREOF AS ANIMAL FEED ADDITIVES” (GUANGZHOU INSIGHTER BIOTECHNOLOGY CO., LTD., priority 2014, published 2016).

Consider magnesium salt of hexahydro-β-acid, for which, in data set [1], the “Content when being heated at 100° C. for 20 h” value (“Content … for 20 h” below) was 1.49% and the “Content when being heated at 100° C. for 44 h” value (“Content … for 44 h” below) is given as 0.91%.

As to “manganese salt of acetate ester of hexahydro-β-acid”, in data set [1], the “Content … for 20 h” value was 0% and the “Content … for 44 h” value is listed as 0%.

For laurate ester of hexahydro-β-acid, in data set [1], the “Content … for 20 h” value is given as 2.0% and the “Content … for 44 h” value was determined as 1.96%.

Turning to calcium salt of hexahydro-β-acid, in data set [1], the “Content … for 20 h” value is listed as 0.35% and the “Content … for 44 h” value is given as 0.09%.

For the substance hexahydro-β-acid [reference compound], in data set [1], the “Content … for 20 h” value is 0.06% and the “Content … for 44 h” value turned out to be 0%. In data set [2] (2 ppm mixed with feed), the “Average daily weight gain” value is recorded as 24.83 g, the Average weight gain is given as 745 g, the Feed conversion efficiency was determined as 1.983 and the Survival rate is 100%. The substance further returned a Consumption in data set [2] (2 ppm mixed with feed) of 147.76 kg. Also, in data set [2] (20 ppm mixed with feed), the “Average daily weight gain” value was 25.26 g, the Average weight gain is 758 g, the Feed conversion efficiency is on record as 1.968 and the Survival rate is listed as 100%. In data set [2] (20 ppm mixed with feed), the Consumption is 149.18 kg.

Turning to “Ferrous Salt of Acetate Ester of hexahydro-β-acid”, in data set [1], the “Content … for 20 h” value is recorded as 1.69% and the “Content … for 44 h” value was 1.63%.

Take “calcium salt of acetate ester of hexahydro-β-acid”: in data set [1], the “Content … for 20 h” value is reported as 1.21% and the “Content … for 44 h” value amounted to 0.31%.

“zinc salt of acetate ester of hexahydro-β-acid”: in data set [1], the “Content … for 20 h” value came to 1.64% and the “Content … for 44 h” value came to 0.70%.

Turning to “magnesium salt of acetate ester of hexahydro-β-acid”, in data set [1], the “Content … for 20 h” value is given as 1.42% and the “Content … for 44 h” value is 0.7%.

Take ferrous salt of hexahydro-β-acid: in data set [1], the “Content … for 20 h” value was 0.14% and the “Content … for 44 h” value is reported as 0.05%.

With “Cobalt Salt of Acetate Ester of hexahydro-β-acid”, in data set [1], the “Content … for 20 h” value is on record as 0.17% and the “Content … for 44 h” value amounted to 0.12%.

With mono acetate ester of hexahydro-β-acid, in data set [1], the “Content … for 20 h” value is listed as 1.52% and the “Content … for 44 h” value was 1.11%.

As for “copper salt of acetate ester of hexahydro-β-acid”, in data set [1], the “Content … for 20 h” value turned out to be 1.50% and the “Content … for 44 h” value is given as 1.28%.

Take “mono decanoate ester of hexahydro-β-acid”: in data set [1], the “Content … for 20 h” value worked out at 1.93% and the “Content … for 44 h” value stood at 1.82%. In data set [2] (30 days test period, in words), the “feed conversion efficiency of the broilers” value is recorded as “significantly improved” and the “weight gain of the broilers” value was “significantly improved”. Besides, in data set [2] (2 ppm mixed with feed), the “Average daily weight gain” value was 25.6 g, the Average weight gain was 768 g, the Feed conversion efficiency turned out to be 1.926 and the Survival rate is on record as 100%. In data set [2] (2 ppm mixed with feed), this substance gave a Consumption of 147.94 kg. In data set [2] (20 ppm mixed with feed), the “Average daily weight gain” value worked out at 26.57 g, the Average weight gain stood at 797 g, the Feed conversion efficiency is 1.837 and the Survival rate was found to be 100%. In data set [2] (20 ppm mixed with feed), this substance had a Consumption of 146.42 kg. For the same substance, the “improvement of the productivity of the broilers” value in data set [2] (compared with hexahydro-β-acid in the same dosage) is “more significant than that of the broilers fed with hexahydro-β-acid in the same dosage”.

On to zinc salt of hexahydro-β-acid, for which, in data set [1], the “Content … for 20 h” value is recorded as 0.95% and the “Content … for 44 h” value stood at 0.52%.

As to cetylate ester of hexahydro-β-acid, in data set [1], the “Content … for 20 h” value is 1.98% and the “Content … for 44 h” value came to 1.93%. Besides, in data set [3] (in words), the “feed conversion efficiency of the pigs” value is recorded as “significantly improved” and the “weight gain of the pigs” value was “significantly improved”. Besides, in data set [3] (setting [4]), the “Average daily weight gain” value is on record as 0.512 kg/day, the Average weight gain amounted to 7.18 kg, the Feed conversion efficiency is recorded as 2.078 and the Consumption turned out to be 298.4 kg. Also, in data set [3] (setting [5]), the “Average daily weight gain” value is recorded as 0.570 kg/day, the Average weight gain worked out at 7.985 kg, the Feed conversion efficiency is 1.706 and the Consumption stood at 272.5 kg. In data set [3] (setting [6]), the “Average daily weight gain” value is listed as 0.508 kg/day, the Average weight gain came out at 7.11 kg, the Feed conversion efficiency is reported as 1.949 and the Consumption turned out to be 277.2 kg. In addition, in data set [3] (setting [7]), the “Average daily weight gain” value was 0.580 kg/day, the Average weight gain was determined as 8.12 kg, the Feed conversion efficiency is on record as 1.690 and the Consumption turned out to be 274.5 kg.
